Target: Low molecular weight phosphotyrosine protein phosphatase ACP1 (Homo sapiens) (UniProt P24666)
Experiment: Inhibition of human cytoplasmic protein tyrosine phosphatase A assessed as change in enzyme activity at pH 7

Sequence of Low molecular weight phosphotyrosine protein phosphatase ACP1 (Homo sapiens) (P24666 whole entry, looked up): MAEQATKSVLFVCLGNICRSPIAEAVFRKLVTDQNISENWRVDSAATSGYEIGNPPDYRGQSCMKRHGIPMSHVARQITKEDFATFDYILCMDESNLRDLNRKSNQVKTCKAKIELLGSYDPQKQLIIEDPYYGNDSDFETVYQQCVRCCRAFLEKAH

Molecule `O=NC(Cc1ccnc2ccccc12)C(=O)O` (stereo unspecified) [2-(hydroxyimino)-3-(quinolin-4-yl)propanoic acid] has an IC50 of 72 µM.

From BindingDB's records for doi:10.1016/j.bmc.2010.04.050 (Purdue University, 2010)
